Literature values, collected in US8084059B2, “Antidepressant dosage form” (ALZA Corporation, priority 1993, dated 2011).

Key:
effects of levodopa = conditions: in vivo
[1] = test system: neuronal uptake of morepinephrine; conditions: in vitro
[2] = humans
monoamine oxidase = conditions: in vitro
[3] = test system: histamine-induced corticotropin release; conditions: in vivo
[4] = test system: cyclicadenosine monophosphate subsensitivity; conditions: after both acute and chronic administration
[5] = test system: neuronal uptake of dopamine; conditions: in vitro
[6] = test system: reserpine-induced hypothermia; conditions: in vivo

SMILES: COc1ccc(C(CN(C)C)C2(O)CCCCC2)cc1 (centres unmarked) [1-[2-(dimethylamino)-1-(4-methoxyphenyl)ethyl]cyclohexanol]
- effect on the effects of levodopa (effects of levodopa): potentiates
- neuronal uptake of morepinephrine [1]: prevents
- antidepressant activity [2]: excellent
- inhibition of monoamine oxidase (monoamine oxidase): does not inhibit
- effect on histamine-induced corticotropin release [3]: reduces
- cyclicadenosine monophosphate subsensitivity [4]: induces
- neuronal uptake of dopamine [5]: prevents
- effect on reserpine-induced hypothermia [6]: antagonizes
